{
  "source": "the supplement of paper PMC10307832",
  "assay_in_all_cases": "relative viability (nuclei count vs DMSO), 5 days (fraction); higher = more cells survive",
  "key": {"ABC-1": {"tested_on": "ABC-1", "outline": "(§1)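 Values are medians from duplicate plates. Each reflects relative viability, defined as the nuclei count of treated wells over that of vehicle wells. Lung cancer cell lines in 1536-well plates were pin-tool dosed one day after seeding with one drug alone or with a fixed anchor-drug dose plus five library-drug doses (not always all listed) in √10 steps, then fixed, stained and imaged at 4× after 5 days.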"}, "CAL-12T": {"tested_on": "CAL-12T", "outline": "as §1"}, "ChaGo-K-1": {"tested_on": "ChaGo-K-1", "outline": "as §1"}, "EKVX": {"tested_on": "EKVX", "outline": "as §1"}, "EPLC-272H": {"tested_on": "EPLC-272H", "outline": "as §1"}, "H3255": {"tested_on": "H3255", "outline": "as §1"}, "HCC-366": {"tested_on": "HCC-366", "outline": "as §1"}, "HCC-827": {"tested_on": "HCC-827", "outline": "as §1"}, "NCI-H1355": {"tested_on": "NCI-H1355", "outline": "as §1"}, "NCI-H1792": {"tested_on": "NCI-H1792", "outline": "as §1"}, "NCI-H1975": {"tested_on": "NCI-H1975", "outline": "as §1"}, "NCI-H1993": {"tested_on": "NCI-H1993", "outline": "as §1"}, "NCI-H2085": {"tested_on": "NCI-H2085", "outline": "as §1"}, "NCI-H2087": {"tested_on": "NCI-H2087", "outline": "as §1"}, "NCI-H2342": {"tested_on": "NCI-H2342", "outline": "as §1"}, "NCI-H322M": {"tested_on": "NCI-H322M", "outline": "as §1"}, "NCI-H441": {"tested_on": "NCI-H441", "outline": "as §1"}, "NCI-H460": {"tested_on": "NCI-H460", "outline": "as §1"}},
  "data": [
    {"molecule": "Cc1csc(=NC2CCCCC2)n1/N=C/c1ccc(O)c(O)c1O", "note": "[MIM1] + NC(=O)Nc1cc(-c2cccc(F)c2)sc1C(=O)N[C@H]1CCCNC1 [AZD7762] (partner 0.2 µM)", "values": [
      {"measurement": "relative viability", "setting": "ABC-1; first compound 0.2 µM", "result": 0.664},
      {"measurement": "relative viability", "setting": "ABC-1; first compound 0.6325 µM", "result": 0.896},
      {"measurement": "relative viability", "setting": "ABC-1; first compound 2 µM", "result": 0.814},
      {"measurement": "relative viability", "setting": "ABC-1; first compound 6.325 µM", "result": 0.788},
      {"measurement": "relative viability", "setting": "ABC-1; first compound 20 µM", "result": 0.341},
      {"measurement": "relative viability", "setting": "CAL-12T; first compound 0.2 µM", "result": 0.527},
      {"measurement": "relative viability", "setting": "CAL-12T; first compound 0.6325 µM", "result": 0.575},
      {"measurement": "relative viability", "setting": "CAL-12T; first compound 2 µM", "result": 0.605},
      {"measurement": "relative viability", "setting": "CAL-12T; first compound 6.325 µM", "result": 0.436},
      {"measurement": "relative viability", "setting": "CAL-12T; first compound 20 µM", "result": 0.332},
      {"measurement": "relative viability", "setting": "ChaGo-K-1; first compound 0.2 µM", "result": 0.869},
      {"measurement": "relative viability", "setting": "ChaGo-K-1; first compound 0.6325 µM", "result": 0.883},
      {"measurement": "relative viability", "setting": "ChaGo-K-1; first compound 2 µM", "result": 0.907},
      {"measurement": "relative viability", "setting": "ChaGo-K-1; first compound 6.325 µM", "result": 0.596},
      {"measurement": "relative viability", "setting": "ChaGo-K-1; first compound 20 µM", "result": 0.248},
      {"measurement": "relative viability", "setting": "EKVX; first compound 0.2 µM", "result": 0.697},
      {"measurement": "relative viability", "setting": "EKVX; first compound 0.6325 µM", "result": 0.616},
      {"measurement": "relative viability", "setting": "EKVX; first compound 2 µM", "result": 0.625},
      {"measurement": "relative viability", "setting": "EKVX; first compound 6.325 µM", "result": 0.599},
      {"measurement": "relative viability", "setting": "EKVX; first compound 20 µM", "result": 0.44},
      {"measurement": "relative viability", "setting": "EPLC-272H; first compound 0.2 µM", "result": 0.224},
      {"measurement": "relative viability", "setting": "EPLC-272H; first compound 0.6325 µM", "result": 0.305},
      {"measurement": "relative viability", "setting": "EPLC-272H; first compound 2 µM", "result": 0.208},
      {"measurement": "relative viability", "setting": "EPLC-272H; first compound 6.325 µM", "result": 0.245},
      {"measurement": "relative viability", "setting": "EPLC-272H; first compound 20 µM", "result": 0.106},
      {"measurement": "relative viability", "setting": "H3255; first compound 0.2 µM", "result": 0.863},
      {"measurement": "relative viability", "setting": "H3255; first compound 0.6325 µM", "result": 0.85},
      {"measurement": "relative viability", "setting": "H3255; first compound 2 µM", "result": 0.783},
      {"measurement": "relative viability", "setting": "H3255; first compound 6.325 µM", "result": 0.571},
      {"measurement": "relative viability", "setting": "H3255; first compound 20 µM", "result": 0.371},
      {"measurement": "relative viability", "setting": "HCC-366; first compound 0.2 µM", "result": 0.318},
      {"measurement": "relative viability", "setting": "HCC-366; first compound 2 µM", "result": 0.181},
      {"measurement": "relative viability", "setting": "HCC-366; first compound 6.325 µM", "result": 0.093},
      {"measurement": "relative viability", "setting": "HCC-366; first compound 20 µM", "result": 0.0374},
      {"measurement": "relative viability", "setting": "HCC-827; first compound 0.2 µM", "result": 0.245},
      {"measurement": "relative viability", "setting": "HCC-827; first compound 0.6325 µM", "result": 0.235},
      {"measurement": "relative viability", "setting": "HCC-827; first compound 2 µM", "result": 0.165},
      {"measurement": "relative viability", "setting": "HCC-827; first compound 6.325 µM", "result": 0.189},
      {"measurement": "relative viability", "setting": "HCC-827; first compound 20 µM", "result": 0.304},
      {"measurement": "relative viability", "setting": "NCI-H1355; first compound 0.2 µM", "result": 0.802},
      {"measurement": "relative viability", "setting": "NCI-H1355; first compound 0.6325 µM", "result": 0.69},
      {"measurement": "relative viability", "setting": "NCI-H1355; first compound 2 µM", "result": 0.814},
      {"measurement": "relative viability", "setting": "NCI-H1355; first compound 6.325 µM", "result": 0.529},
      {"measurement": "relative viability", "setting": "NCI-H1355; first compound 20 µM", "result": 0.673},
      {"measurement": "relative viability", "setting": "NCI-H1792; first compound 0.2 µM", "result": 0.657},
      {"measurement": "relative viability", "setting": "NCI-H1792; first compound 0.6325 µM", "result": 0.565},
      {"measurement": "relative viability", "setting": "NCI-H1792; first compound 2 µM", "result": 0.733},
      {"measurement": "relative viability", "setting": "NCI-H1792; first compound 6.325 µM", "result": 0.559},
      {"measurement": "relative viability", "setting": "NCI-H1792; first compound 20 µM", "result": 0.858},
      {"measurement": "relative viability", "setting": "NCI-H1975; first compound 0.2 µM", "result": 0.765},
      {"measurement": "relative viability", "setting": "NCI-H1975; first compound 0.6325 µM", "result": 0.628},
      {"measurement": "relative viability", "setting": "NCI-H1975; first compound 2 µM", "result": 0.697},
      {"measurement": "relative viability", "setting": "NCI-H1975; first compound 6.325 µM", "result": 0.549},
      {"measurement": "relative viability", "setting": "NCI-H1975; first compound 20 µM", "result": 0.572},
      {"measurement": "relative viability", "setting": "NCI-H1993; first compound 0.2 µM", "result": 0.704},
      {"measurement": "relative viability", "setting": "NCI-H1993; first compound 0.6325 µM", "result": 0.761},
      {"measurement": "relative viability", "setting": "NCI-H1993; first compound 2 µM", "result": 0.73},
      {"measurement": "relative viability", "setting": "NCI-H1993; first compound 6.325 µM", "result": 0.569},
      {"measurement": "relative viability", "setting": "NCI-H1993; first compound 20 µM", "result": 0.35},
      {"measurement": "relative viability", "setting": "NCI-H2085; first compound 0.2 µM", "result": 1},
      {"measurement": "relative viability", "setting": "NCI-H2085; first compound 0.6325 µM", "result": 0.963},
      {"measurement": "relative viability", "setting": "NCI-H2085; first compound 2 µM", "result": 1.07},
      {"measurement": "relative viability", "setting": "NCI-H2085; first compound 6.325 µM", "result": 0.766},
      {"measurement": "relative viability", "setting": "NCI-H2085; first compound 20 µM", "result": 0.775},
      {"measurement": "relative viability", "setting": "NCI-H2087; first compound 0.2 µM", "result": 1.31},
      {"measurement": "relative viability", "setting": "NCI-H2087; first compound 0.6325 µM", "result": 1.29},
      {"measurement": "relative viability", "setting": "NCI-H2087; first compound 2 µM", "result": 1.45},
      {"measurement": "relative viability", "setting": "NCI-H2087; first compound 6.325 µM", "result": 0.87},
      {"measurement": "relative viability", "setting": "NCI-H2087; first compound 20 µM", "result": 1.05},
      {"measurement": "relative viability", "setting": "NCI-H2342; first compound 0.2 µM", "result": 0.414},
      {"measurement": "relative viability", "setting": "NCI-H2342; first compound 0.6325 µM", "result": 0.475},
      {"measurement": "relative viability", "setting": "NCI-H2342; first compound 2 µM", "result": 0.431},
      {"measurement": "relative viability", "setting": "NCI-H2342; first compound 6.325 µM", "result": 0.477},
      {"measurement": "relative viability", "setting": "NCI-H2342; first compound 20 µM", "result": 0.543},
      {"measurement": "relative viability", "setting": "NCI-H322M; first compound 0.2 µM", "result": 0.564},
      {"measurement": "relative viability", "setting": "NCI-H322M; first compound 0.6325 µM", "result": 0.652},
      {"measurement": "relative viability", "setting": "NCI-H322M; first compound 2 µM", "result": 0.446},
      {"measurement": "relative viability", "setting": "NCI-H322M; first compound 6.325 µM", "result": 0.455},
      {"measurement": "relative viability", "setting": "NCI-H322M; first compound 20 µM", "result": 0.439},
      {"measurement": "relative viability", "setting": "NCI-H441; first compound 0.2 µM", "result": 1.16},
      {"measurement": "relative viability", "setting": "NCI-H441; first compound 0.6325 µM", "result": 1.09},
      {"measurement": "relative viability", "setting": "NCI-H441; first compound 2 µM", "result": 1.17},
      {"measurement": "relative viability", "setting": "NCI-H441; first compound 6.325 µM", "result": 0.674},
      {"measurement": "relative viability", "setting": "NCI-H441; first compound 20 µM", "result": 0.386},
      {"measurement": "relative viability", "setting": "NCI-H460; first compound 0.2 µM", "result": 0.538},
      {"measurement": "relative viability", "setting": "NCI-H460; first compound 0.6325 µM", "result": 0.629},
      {"measurement": "relative viability", "setting": "NCI-H460; first compound 2 µM", "result": 0.526},
      {"measurement": "relative viability", "setting": "NCI-H460; first compound 6.325 µM", "result": 0.251},
      {"measurement": "relative viability", "setting": "NCI-H460; first compound 20 µM", "result": 0.0582}
    ]}
  ]
}
